Measurements from article PMC6133997, “Glutamic acid is a carrier for hydrazine during the biosyntheses of fosfazinomycin and kinamycin” (Nature Communications, 2018).

Tests used:
[1] = biological target: T1, KinL (Streptomyces murayamaensis, UniProt A0A385LSP3); test: LC-HRMS of culture supernatant of E. coli expressing KinL; format: cell-based; conditions: 1 mM acetylhydrazine, 1 mM glutamic acid, 15 °C overnight; empty-vector control
T1 construct: pET28a in live E. coli BL21(DE3), not purified
T1 sequence (A0A385LSP3 1-500): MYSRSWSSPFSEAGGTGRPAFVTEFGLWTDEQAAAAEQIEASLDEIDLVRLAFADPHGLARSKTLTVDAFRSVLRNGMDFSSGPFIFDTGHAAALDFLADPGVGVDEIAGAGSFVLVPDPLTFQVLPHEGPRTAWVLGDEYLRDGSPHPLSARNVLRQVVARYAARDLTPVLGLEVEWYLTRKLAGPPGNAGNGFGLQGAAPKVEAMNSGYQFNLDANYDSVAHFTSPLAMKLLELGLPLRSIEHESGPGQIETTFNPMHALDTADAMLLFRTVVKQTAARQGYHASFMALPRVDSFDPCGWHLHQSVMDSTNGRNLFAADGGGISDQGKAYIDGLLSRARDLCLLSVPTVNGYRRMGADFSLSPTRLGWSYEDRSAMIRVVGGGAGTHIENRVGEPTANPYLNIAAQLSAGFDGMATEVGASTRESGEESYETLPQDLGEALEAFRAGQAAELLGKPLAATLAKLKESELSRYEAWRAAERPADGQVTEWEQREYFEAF

[2] = test system: FzmA; conditions: 21 µM enzyme, 5 mM substrate, 5 mM arginine, 6 mM MgCl2, 6 mM ATP, 50 mM NaH2PO4 pH 7.7, 21 h; hydrolysis to glutamic acid
Sequence of FzmA (U5YQM4 entry or part of it): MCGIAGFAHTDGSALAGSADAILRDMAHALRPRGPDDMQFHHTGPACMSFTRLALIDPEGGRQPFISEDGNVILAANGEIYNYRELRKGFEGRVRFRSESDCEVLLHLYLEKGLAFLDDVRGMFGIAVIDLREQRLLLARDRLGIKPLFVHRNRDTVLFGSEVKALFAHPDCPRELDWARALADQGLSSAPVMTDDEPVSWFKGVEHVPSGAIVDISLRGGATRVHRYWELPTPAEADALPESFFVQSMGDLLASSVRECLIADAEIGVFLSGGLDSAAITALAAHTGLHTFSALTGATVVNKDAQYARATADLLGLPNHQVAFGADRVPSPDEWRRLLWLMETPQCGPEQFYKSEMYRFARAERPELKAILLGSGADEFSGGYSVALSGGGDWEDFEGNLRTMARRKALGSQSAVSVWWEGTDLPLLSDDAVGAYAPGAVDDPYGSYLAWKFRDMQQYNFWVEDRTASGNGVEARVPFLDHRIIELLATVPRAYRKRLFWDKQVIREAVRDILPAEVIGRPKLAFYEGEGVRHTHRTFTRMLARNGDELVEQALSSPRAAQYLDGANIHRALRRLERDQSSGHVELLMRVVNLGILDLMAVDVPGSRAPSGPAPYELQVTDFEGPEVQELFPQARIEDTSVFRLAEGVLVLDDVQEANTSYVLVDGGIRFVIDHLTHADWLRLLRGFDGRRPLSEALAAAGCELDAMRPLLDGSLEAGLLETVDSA

Row | SMILES | LC-HRMS of culture supernatant of E. coli expressing KinL [1] | LC-MS after Fmoc-Cl derivatization [2]
1 | CC(=O)NN [acetylhydrazine] | observed in culture supernatants only when KinL was expressed and acetylhydrazine was present | –
2 | NNC(=O)CC[C@H](N)C(=O)O [compound 6, glutamylhydrazine] | – | FzmA clearly has the ability to liberate hydrazine from glutamylhydrazine
